Results: patent US7655657B2, “Fused bicycloheterocycle substituted quinuclidine derivatives” (Abbott Laboratories, priority 2003, dated 2010)
Counter-ions that a name gives are not always drawn. Like-named read-outs stand apart in the source and are kept apart here.

Assays:
[1] = biological target: T1, α7 nAChRs (Rattus norvegicus, UniProt Q05941); test: [3H]-methyllycaconitine (MLA) binding assay
T1 construct: Membrane enriched fractions from rat brain minus cerebellum; tissue ABS Inc., Wilmington, Del; host or cells: rat brain minus cerebellum
T1 sequence (Q05941 23-502): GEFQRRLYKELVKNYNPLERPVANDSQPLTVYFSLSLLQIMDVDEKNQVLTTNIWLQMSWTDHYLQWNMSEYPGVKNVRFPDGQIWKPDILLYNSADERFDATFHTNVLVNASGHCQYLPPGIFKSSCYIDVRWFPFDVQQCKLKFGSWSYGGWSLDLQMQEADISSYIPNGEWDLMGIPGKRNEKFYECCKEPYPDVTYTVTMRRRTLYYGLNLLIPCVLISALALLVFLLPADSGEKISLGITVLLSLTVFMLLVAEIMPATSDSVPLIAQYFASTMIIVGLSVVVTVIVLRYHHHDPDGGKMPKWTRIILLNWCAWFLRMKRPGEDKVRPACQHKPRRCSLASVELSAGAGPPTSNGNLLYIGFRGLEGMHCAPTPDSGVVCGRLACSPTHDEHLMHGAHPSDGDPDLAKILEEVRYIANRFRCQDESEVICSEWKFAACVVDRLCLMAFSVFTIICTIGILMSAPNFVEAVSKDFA
Method: To determine the effectiveness of representative compounds of this invention as α7 nAChRs, the compounds of the invention were evaluated according to the [3H]-methyllycaconitine (MLA) binding assay and considering the [^3H]-cytisine binding assay, which were performed as described below.
[^3H]-Methyllycaconitine (MLA) Binding
Binding conditions were similar to those for [^3H]-cytisine binding. Membrane enriched fractions from rat brain minus cerebellum (ABS Inc., Wilmington, Del.) were slowly thawed at 4° C., washed and resuspended in 30 volumes of BSS-Tris buffer (120 mM NaCl, 5 mM KCl, 2 mM CaCl2, 2 mM MgCl2, and 50 mM Tris-Cl, pH 7.4, 22° C.). Samples containing 100-200 μg of protein, 5 nM [^3H]-MLA (25 Ci/mmol; Perkin Elmer/NEN Life Science Products, Boston, Mass.) and 0.1% bovine serum albumin (BSA, Millipore, Bedford, Mass.) were incubated in a final volume of 500 μL for 60 minutes at 22° C. Seven log-dilution concentrations of each compound were tested in duplicate. Non-specific binding was determined in the presence of 10 μM MLA. Bound radioactivity was isolated by vacuum filtration onto glass fiber filter plates prewetted with 2% BSA using a 96-well filtration apparatus (Packard Instruments, Meriden, Conn.) and were then rapidly rinsed with 2 mL of ice-cold BSS. Packard MicroScint-20® scintillation cocktail (40 μL) was added to each well and radioactivity was determined using a Packard TopCount® instrument. The IC50 values were determined by nonlinear regression in Microsoft Excel® software. Ki values were calculated from the IC50s using the Cheng-Prusoff equation, where Ki=IC50/1+[Ligand]/KD].

[2] = biological target: hERG ion channel (Homo sapiens, UniProt Q12809); test: [3H]-dofetilide binding to membranes from HERG-transfected HEK cells; settings: for selectivity ratio at 45 min: human, membrane preparations from HERG-transfected HEK cells, pH 7.4, probe [3H]-dofetilide
Chain of hERG ion channel (Q12809 whole entry): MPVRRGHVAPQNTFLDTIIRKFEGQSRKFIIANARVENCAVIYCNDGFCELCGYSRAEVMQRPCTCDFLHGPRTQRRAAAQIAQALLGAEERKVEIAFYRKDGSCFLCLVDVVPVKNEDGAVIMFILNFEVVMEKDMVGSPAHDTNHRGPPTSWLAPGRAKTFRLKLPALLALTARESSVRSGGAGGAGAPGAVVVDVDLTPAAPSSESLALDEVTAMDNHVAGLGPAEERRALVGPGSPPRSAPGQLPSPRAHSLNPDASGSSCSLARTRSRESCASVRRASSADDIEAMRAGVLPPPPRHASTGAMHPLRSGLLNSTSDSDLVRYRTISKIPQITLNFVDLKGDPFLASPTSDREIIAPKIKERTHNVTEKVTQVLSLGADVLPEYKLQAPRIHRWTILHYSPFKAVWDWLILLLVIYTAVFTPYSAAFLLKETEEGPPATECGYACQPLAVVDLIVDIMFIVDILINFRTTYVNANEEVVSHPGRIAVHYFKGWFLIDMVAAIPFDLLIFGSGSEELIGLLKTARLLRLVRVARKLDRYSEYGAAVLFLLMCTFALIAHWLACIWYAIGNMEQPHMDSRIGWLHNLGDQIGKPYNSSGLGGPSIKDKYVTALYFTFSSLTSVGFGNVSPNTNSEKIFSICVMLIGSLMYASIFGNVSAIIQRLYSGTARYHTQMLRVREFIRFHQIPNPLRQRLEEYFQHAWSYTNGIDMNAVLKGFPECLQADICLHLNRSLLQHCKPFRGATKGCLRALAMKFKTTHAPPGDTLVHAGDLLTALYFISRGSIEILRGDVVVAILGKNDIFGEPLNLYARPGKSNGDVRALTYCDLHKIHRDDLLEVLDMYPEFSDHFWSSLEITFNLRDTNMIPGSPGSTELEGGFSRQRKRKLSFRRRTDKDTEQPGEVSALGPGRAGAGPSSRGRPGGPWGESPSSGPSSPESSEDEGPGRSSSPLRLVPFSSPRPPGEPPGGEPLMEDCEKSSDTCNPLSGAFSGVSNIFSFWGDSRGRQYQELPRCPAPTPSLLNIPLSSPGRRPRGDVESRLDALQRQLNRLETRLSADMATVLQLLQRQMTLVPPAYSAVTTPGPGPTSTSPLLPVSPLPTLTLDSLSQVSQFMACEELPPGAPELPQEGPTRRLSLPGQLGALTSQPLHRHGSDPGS
Method: Membrane aliquots were thawed and homogenized again in a glass Dounce homogenizer (approximately 10 passes). Test compounds were diluted (6 concentrations at half-log intervals) from DMSO stock solutions in assay buffer (135 mM NaCl, 5 mM KCl, 0.8 mM MgCl2, 10 mM HEPES, 10 mM glucose, 1 mM EGTA, 0.01% BSA, pH 7.4), and tested in duplicate at each concentration. The following were added to each 200 μl well of a 96-well polystyrene plate (Packard Optiplate, cat. # 6005290): 20 μl of assay binding buffer (for total bounds), or 1 μM astemizole (for non-specific bounds), or test compound, 50 μl of [^3H]-dofetilide, and 130 μl of membrane homogenate (final protein concentration=30 μg per well). The plates were incubated at room temperature for 45 m, aspirated onto GF/B filter plates, and washed with 2 ml of cold wash buffer. The radioactivity was counted in a Packard Topcount Scintillation Counter after addition of 50 μl of scintillant (Packard Microscint-20, cat. # 6013621). The data were analyzed with a four-parameter logistic equation (PRISM™, Graphpad or Assay Explorer™, MDL). Ki values were derived by means of the Cheng and Prusoff (1973) equation (Ki=IC50/1+[ligand]/Kd) using Kd values for [^3H]-dofetilide obtained from previously performed saturation assays (Diaz et al., 2004). […] Each Ki represents an average of at least two independent determinations.
Thus, binding affinities to the hERG channel were expressed in Ki value, i.e. Ki hERG.

[3] = rat brain minus cerebellum membranes, 5 nM [3H]-MLA, read-out: α7 binding [3H]MLA Ki

| SMILES | Ki [1, 3] [nM] | Ki [2] [nM] | selectivity ratio at 45 min [2] | Ki [1] [nM] |
| --- | --- | --- | --- | --- |
| c1cc2cc(-c3ccc(O[C@H]4CN5CCC4CC5)nn3)ccc2o1 [B, (R)-3-[6-(Benzofuran-5-yl)-pyridazin-3-yloxy]-1-aza-bicyclo[2.2.2]octane trifluoroacetate, reference compound] | 142 | 4090 | 29 | – |
| C1=Cc2cc(-c3ccc(O[C@H]4CN5CCC4CC5)nn3)ccc2C1 [D, (R)-3-[6-(1H-Inden-5-yl)-pyridazin-3-yloxy]-1-aza-bicyclo[2.2.2]octane trifluoroacetate, reference compound] | 15.7 | 2090 | 133 | – |
| c1cc2c(cc1-c1ccc(O[C@H]3CN4CCC3CC4)nn1)CCC2 [E, (R)-3-(6-Indan-5-yl-pyridazin-3-yloxy)-1-aza-bicyclo[2.2.2]octane trifluoroacetate, reference compound] | 33.9 | 1680 | 50 | – |
| c1cc2cc(-c3ccc(O[C@H]4CN5CCC4CC5)nn3)ccc2[nH]1 [Example 9, 5-{6-[(3R)-1-Azabicyclo[2.2.2]oct-3-yloxy]pyridazin-3-yl}-1H-indole] | 6.7 | 10900 | 1620 | – |
| Cc1c[nH]c2ccc(-c3ccc(O[C@H]4CN5CCC4CC5)nn3)cc12 [Example 10, 5-{6-[(3R)-1-Azabicyclo[2.2.2]oct-3-yloxy]pyridazin-3-yl}-3-methyl-1H-indole] | – | 5200 | 1680 | 3.1 |
| c1cc(-c2cnc(O[C@H]3CN4CCC3CC4)nc2)c2cc[nH]c2c1 [Example 12, 4-{2-[(3R)-1-Azabicyclo[2.2.2]oct-3-yloxy]pyrimidin-5-yl}-1H-indole] | – | 8830 | 516 | 17.1 |
| Nc1nc2ccc(-c3ccc(O[C@H]4CN5CCC4CC5)cc3)cc2s1 [Example 16, 6-{4-[(3R)-1-Azabicyclo[2.2.2]oct-3-yloxy]phenyl}-1,3-benzothiazol-2-amine] | – | 1510 | 888 | 1.7 |
| Cc1n[nH]c2ccc(-c3ccc(O[C@H]4CN5CCC4CC5)nn3)cc12 [Example 20, (R)-3-[6-(3-Methyl-1H-indazol-5-yl)-pyridazin-3-yloxy]-1-aza-bicyclo[2.2.2]octane fumarate] | 16.3 | 13000 | 797 | – |
| CN(C)Cc1c[nH]c2ccc(-c3ccc(O[C@H]4CN5CCC4CC5)nn3)cc12 [Example 22, (R)-{5-[6-(1-Aza-bicyclo[2.2.2]oct-3-yloxy)-pyridazin-3-yl]-1H-indol-3-ylmethyl}-dimethyl-amine bis(fumarate)] | 55.8 | 37300 | 669 | – |
| O=C1Cc2cc(-c3ccc(O[C@H]4C[N+]5([O-])CCC4CC5)nn3)ccc2N1 [Example 27, 5-{6-[(3R)-1-Oxy-1-Aza-bicyclo[2.2.2]oct-3-yloxy]-pyridazin-3-yl}-1,3-dihydro-indol-2-one bis(hydrogen chloride)] | 13.9 | > 50000 | > 4000 | – |
| c1cc2cc(-c3ccc(O[C@@H]4CN5CCC4CC5)nn3)ccc2[nH]1 [Example 30, (S)-3-[6-(1H-Indol-5-yl)-pyridazin-3-yloxy]-1-aza-bicyclo[2.2.2]octane fumarate] | 4.3 | 12700 | 2960 | – |
| c1cc2cc(-c3ccc(O[C@H]4CN5CCC4CC5)nc3)ccc2[nH]1 [Example 31, (R)-3-[5-(1H-Indol-5-yl)-pyridin-2-yloxy]-1-aza-bicyclo[2.2.2]octane trifluoroacetate] | 7.6 | 2570 | 339 | – |
| c1ccc2cc(-c3ccc(O[C@H]4CN5CCC4CC5)nn3)ccc2c1 [Example A, (R)-3-(6-Naphthalen-2-yl-pyridazin-3-yloxy)-1-aza-bicyclo[2.2.2]octane trifluoroacetate, reference compound] | 78.9 | 838 | 11 | – |
| c1ccc2oc(-c3ccc(O[C@H]4CN5CCC4CC5)nn3)cc2c1 [Example C, (R)-3-[6-(Benzofuran-2-yl)-pyridazin-3-yloxy]-1-aza-bicyclo[2.2.2]octane trifluoroacetate, reference compound] | 162 | 392 | 2 | – |
